{
  "source": "PubChem BioAssay AID1963842",
  "about": "(Molecular Pharmacology Branch, DTP, NCI, 2024);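 also: spheroids exposed to compounds for one week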;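 as to viability, T/C: 100% = vehicle DMSO treated spheroids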",
  "test_system": "677734-321-R-J1-PDC complex spheroid viability",
  "assay": "Anticancer human tumor 677734-321-R-J1-PDC patient-derived soft tissue sarcoma cell line growth inhibition [POLQ]",
  "settings": "for IC50: curve of first compound; for viability, T/C: stronger effect = lower value",
  "in_short": "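Growth inhibition in 3D: complex spheroids (tumor PDC, HUVEC, MSC) treated with POLQ inhibitor combinations; where Cmax unknown, highest tested concentration 10 microM, except SN-38 at 1 microM.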",
  "key": {"[1]": {"settings": "second compound 0.0316 µM, first compound 0.0316 µM"}, "[2]": {"settings": "second compound 0.0316 µM, first compound 0.1 µM"}, "[3]": {"settings": "second compound 0.0316 µM, first compound 0.316 µM"}, "[4]": {"settings": "second compound 0.0316 µM, first compound 1 µM"}, "[5]": {"settings": "second compound 0.0316 µM, first compound 3.16 µM"}, "[6]": {"settings": "second compound 0.0316 µM, first compound 10 µM"}, "[7]": {"settings": "second compound 0.1 µM, first compound 0.0316 µM"}, "[8]": {"settings": "second compound 0.1 µM, first compound 0.1 µM"}, "[9]": {"settings": "second compound 0.1 µM, first compound 0.316 µM"}, "[10]": {"settings": "second compound 0.1 µM, first compound 1 µM"}, "[11]": {"settings": "second compound 0.1 µM, first compound 3.16 µM"}, "[12]": {"settings": "second compound 0.1 µM, first compound 10 µM"}, "[13]": {"settings": "second compound 0.316 µM, first compound 0.0316 µM"}, "[14]": {"settings": "second compound 0.316 µM, first compound 0.1 µM"}, "[15]": {"settings": "second compound 0.316 µM, first compound 0.316 µM"}, "[16]": {"settings": "second compound 0.316 µM, first compound 1 µM"}, "[17]": {"settings": "second compound 0.316 µM, first compound 3.16 µM"}, "[18]": {"settings": "second compound 0.316 µM, first compound 10 µM"}, "[19]": {"settings": "second compound 1 µM, first compound 0.0316 µM"}, "[20]": {"settings": "second compound 1 µM, first compound 0.1 µM"}, "[21]": {"settings": "second compound 1 µM, first compound 0.316 µM"}, "[22]": {"settings": "second compound 1 µM, first compound 1 µM"}, "[23]": {"settings": "second compound 1 µM, first compound 3.16 µM"}, "[24]": {"settings": "second compound 1 µM, first compound 10 µM"}, "[25]": {"settings": "second compound 3.16 µM, first compound 0.0316 µM"}, "[26]": {"settings": "second compound 3.16 µM, first compound 0.1 µM"}, "[27]": {"settings": "second compound 3.16 µM, first compound 0.316 µM"}, "[28]": {"settings": "second compound 3.16 µM, first compound 1 µM"}, "[29]": {"settings": "second compound 3.16 µM, first compound 3.16 µM"}, "[30]": {"settings": "second compound 3.16 µM, first compound 10 µM"}, "[31]": {"settings": "second compound 10 µM, first compound 0.0316 µM"}, "[32]": {"settings": "second compound 10 µM, first compound 0.1 µM"}, "[33]": {"settings": "second compound 10 µM, first compound 0.316 µM"}, "[34]": {"settings": "second compound 10 µM, first compound 1 µM"}, "[35]": {"settings": "second compound 10 µM, first compound 3.16 µM"}, "[36]": {"settings": "second compound 10 µM, first compound 10 µM"}},
  "data": [
    {"smiles": "COc1cc(C2c3cc4c(cc3C(OC3OC5COC(C)OC5C(O)C3O)C3COC(=O)C23)OCO4)cc(OC)c1O", "note": "(centres undefined) + Nc1ccc(C#CCN(C(=O)Cc2ncc(C(F)(F)F)cc2C(F)(F)F)c2ccc(F)cc2)nn1", "values": [
      {"measurement": "IC50", "setting": "second compound 0.0316 µM", "value": 417, "unit": "nM"},
      {"measurement": "IC50", "setting": "second compound 0.1 µM", "value": 482, "unit": "nM"},
      {"measurement": "IC50", "setting": "second compound 0.316 µM", "value": 315, "unit": "nM"},
      {"measurement": "IC50", "setting": "second compound 1 µM", "value": 375, "unit": "nM"},
      {"measurement": "IC50", "setting": "second compound 3.16 µM", "value": 341, "unit": "nM"},
      {"measurement": "IC50", "setting": "second compound 10 µM", "value": 219, "unit": "nM"},
      {"measurement": "viability, T/C", "setting": "[1]", "value": 98.2, "unit": "%"},
      {"measurement": "viability, T/C", "setting": "[2]", "value": 93.8, "unit": "%"},
      {"measurement": "viability, T/C", "setting": "[3]", "value": 47.1, "unit": "%"},
      {"measurement": "viability, T/C", "setting": "[4]", "value": 37.2, "unit": "%"},
      {"measurement": "viability, T/C", "setting": "[5]", "value": 16.8, "unit": "%"},
      {"measurement": "viability, T/C", "setting": "[6]", "value": 10.4, "unit": "%"},
      {"measurement": "viability, T/C", "setting": "[7]", "value": 97.4, "unit": "%"},
      {"measurement": "viability, T/C", "setting": "[8]", "value": 92.5, "unit": "%"},
      {"measurement": "viability, T/C", "setting": "[9]", "value": 45.8, "unit": "%"},
      {"measurement": "viability, T/C", "setting": "[10]", "value": 46, "unit": "%"},
      {"measurement": "viability, T/C", "setting": "[11]", "value": 11.4, "unit": "%"},
      {"measurement": "viability, T/C", "setting": "[12]", "value": 8.28, "unit": "%"},
      {"measurement": "viability, T/C", "setting": "[13]", "value": 122, "unit": "%"},
      {"measurement": "viability, T/C", "setting": "[14]", "value": 102, "unit": "%"},
      {"measurement": "viability, T/C", "setting": "[15]", "value": 45, "unit": "%"},
      {"measurement": "viability, T/C", "setting": "[16]", "value": 29.6, "unit": "%"},
      {"measurement": "viability, T/C", "setting": "[17]", "value": 12.6, "unit": "%"},
      {"measurement": "viability, T/C", "setting": "[18]", "value": 10.6, "unit": "%"},
      {"measurement": "viability, T/C", "setting": "[19]", "value": 111, "unit": "%"},
      {"measurement": "viability, T/C", "setting": "[20]", "value": 75.3, "unit": "%"},
      {"measurement": "viability, T/C", "setting": "[21]", "value": 54, "unit": "%"},
      {"measurement": "viability, T/C", "setting": "[22]", "value": 36.2, "unit": "%"},
      {"measurement": "viability, T/C", "setting": "[23]", "value": 15.4, "unit": "%"},
      {"measurement": "viability, T/C", "setting": "[24]", "value": 8.43, "unit": "%"},
      {"measurement": "viability, T/C", "setting": "[25]", "value": 101, "unit": "%"},
      {"measurement": "viability, T/C", "setting": "[26]", "value": 89.2, "unit": "%"},
      {"measurement": "viability, T/C", "setting": "[27]", "value": 41.8, "unit": "%"},
      {"measurement": "viability, T/C", "setting": "[28]", "value": 36.6, "unit": "%"},
      {"measurement": "viability, T/C", "setting": "[29]", "value": 12.5, "unit": "%"},
      {"measurement": "viability, T/C", "setting": "[30]", "value": 10, "unit": "%"},
      {"measurement": "viability, T/C", "setting": "[31]", "value": 108, "unit": "%"},
      {"measurement": "viability, T/C", "setting": "[32]", "value": 72.6, "unit": "%"},
      {"measurement": "viability, T/C", "setting": "[33]", "value": 31, "unit": "%"},
      {"measurement": "viability, T/C", "setting": "[34]", "value": 35.5, "unit": "%"},
      {"measurement": "viability, T/C", "setting": "[35]", "value": 12.5, "unit": "%"},
      {"measurement": "viability, T/C", "setting": "[36]", "value": 8.79, "unit": "%"}
    ]},
    {"smiles": "CCc1cc2c(N3CCc4c(cc(Cn5ccnc5)cc4-c4cn(C)nc4C(F)(F)F)C3=O)cc(C)nc2c(OC)n1", "note": "+ Nc1ccc(C#CCN(C(=O)Cc2ncc(C(F)(F)F)cc2C(F)(F)F)c2ccc(F)cc2)nn1", "values": [
      {"measurement": "IC50", "setting": "second compound 0.0316 µM", "value": "> 10000", "unit": "nM"},
      {"measurement": "IC50", "setting": "second compound 0.1 µM", "value": 6090, "unit": "nM"},
      {"measurement": "IC50", "setting": "second compound 0.316 µM", "value": 7570, "unit": "nM"},
      {"measurement": "IC50", "setting": "second compound 1 µM", "value": 5900, "unit": "nM"},
      {"measurement": "IC50", "setting": "second compound 3.16 µM", "value": 5710, "unit": "nM"},
      {"measurement": "IC50", "setting": "second compound 10 µM", "value": 4500, "unit": "nM"},
      {"measurement": "viability, T/C", "setting": "[1]", "value": 100, "unit": "%"},
      {"measurement": "viability, T/C", "setting": "[2]", "value": 101, "unit": "%"},
      {"measurement": "viability, T/C", "setting": "[3]", "value": 85, "unit": "%"},
      {"measurement": "viability, T/C", "setting": "[4]", "value": 76.3, "unit": "%"},
      {"measurement": "viability, T/C", "setting": "[5]", "value": 63.8, "unit": "%"},
      {"measurement": "viability, T/C", "setting": "[6]", "value": 61.8, "unit": "%"},
      {"measurement": "viability, T/C", "setting": "[7]", "value": 102, "unit": "%"},
      {"measurement": "viability, T/C", "setting": "[8]", "value": 94.2, "unit": "%"},
      {"measurement": "viability, T/C", "setting": "[9]", "value": 77.6, "unit": "%"},
      {"measurement": "viability, T/C", "setting": "[10]", "value": 78.5, "unit": "%"},
      {"measurement": "viability, T/C", "setting": "[11]", "value": 53.4, "unit": "%"},
      {"measurement": "viability, T/C", "setting": "[12]", "value": 45.1, "unit": "%"},
      {"measurement": "viability, T/C", "setting": "[13]", "value": 104, "unit": "%"},
      {"measurement": "viability, T/C", "setting": "[14]", "value": 93.6, "unit": "%"},
      {"measurement": "viability, T/C", "setting": "[15]", "value": 96.4, "unit": "%"},
      {"measurement": "viability, T/C", "setting": "[16]", "value": 91.2, "unit": "%"},
      {"measurement": "viability, T/C", "setting": "[17]", "value": 73.2, "unit": "%"},
      {"measurement": "viability, T/C", "setting": "[18]", "value": 42.1, "unit": "%"},
      {"measurement": "viability, T/C", "setting": "[19]", "value": 116, "unit": "%"},
      {"measurement": "viability, T/C", "setting": "[20]", "value": 88, "unit": "%"},
      {"measurement": "viability, T/C", "setting": "[21]", "value": 100, "unit": "%"},
      {"measurement": "viability, T/C", "setting": "[22]", "value": 90.1, "unit": "%"},
      {"measurement": "viability, T/C", "setting": "[23]", "value": 60, "unit": "%"},
      {"measurement": "viability, T/C", "setting": "[24]", "value": 39.1, "unit": "%"},
      {"measurement": "viability, T/C", "setting": "[25]", "value": 107, "unit": "%"},
      {"measurement": "viability, T/C", "setting": "[26]", "value": 97.3, "unit": "%"},
      {"measurement": "viability, T/C", "setting": "[27]", "value": 96.6, "unit": "%"},
      {"measurement": "viability, T/C", "setting": "[28]", "value": 95.2, "unit": "%"},
      {"measurement": "viability, T/C", "setting": "[29]", "value": 65, "unit": "%"},
      {"measurement": "viability, T/C", "setting": "[30]", "value": 35.6, "unit": "%"},
      {"measurement": "viability, T/C", "setting": "[31]", "value": 110, "unit": "%"},
      {"measurement": "viability, T/C", "setting": "[32]", "value": 88.5, "unit": "%"},
      {"measurement": "viability, T/C", "setting": "[33]", "value": 91.4, "unit": "%"},
      {"measurement": "viability, T/C", "setting": "[34]", "value": 86.5, "unit": "%"},
      {"measurement": "viability, T/C", "setting": "[35]", "value": 55.5, "unit": "%"},
      {"measurement": "viability, T/C", "setting": "[36]", "value": 29.8, "unit": "%"}
    ]}
  ]
}
